# Source: ChEMBL document CHEMBL1201862, “PubChem BioAssay data set” (2004)
# Active and inactive are the calls of the source. Non-standard residues stand in square brackets, D forms with d. Residues, ends and D or L forms follow the SMILES beside them. ξ: configuration not given here. *: point of attachment. X18 = COC1=CC(=O)N(C(=O)C(O*)C(C)C)C1Cc1ccccc1; ξNMe2Val = CC(C)C(C(=O)*)N(C)C; NMeV = CN[CH](C(=O)O)C(C)C
# Key:
# [1] = molecular target: T1, Polyadenylate-binding protein 1 (Homo sapiens, UniProt P11940); assay: MLLE domain peptide-binding blockers, IC50 – biochemical, fluorescence polarization, FITC-PAM2 peptide, dose response (AID 602259); format: functional; details: read-out: IC50_Mean
# Protein RecA = molecular target: T2, Protein RecA (Mycobacterium tuberculosis, UniProt P9WHJ3); assay: Fluorescence Cell-Free Homogeneous Dose Retest to Identify Inhibitors of RecA-Intein Splicing Activity. [Related pubchem assays (depositor defined):AID2097, AID2223, AID489010, AID492950]; format: functional
# T2 sequence (P9WHJ3 whole entry): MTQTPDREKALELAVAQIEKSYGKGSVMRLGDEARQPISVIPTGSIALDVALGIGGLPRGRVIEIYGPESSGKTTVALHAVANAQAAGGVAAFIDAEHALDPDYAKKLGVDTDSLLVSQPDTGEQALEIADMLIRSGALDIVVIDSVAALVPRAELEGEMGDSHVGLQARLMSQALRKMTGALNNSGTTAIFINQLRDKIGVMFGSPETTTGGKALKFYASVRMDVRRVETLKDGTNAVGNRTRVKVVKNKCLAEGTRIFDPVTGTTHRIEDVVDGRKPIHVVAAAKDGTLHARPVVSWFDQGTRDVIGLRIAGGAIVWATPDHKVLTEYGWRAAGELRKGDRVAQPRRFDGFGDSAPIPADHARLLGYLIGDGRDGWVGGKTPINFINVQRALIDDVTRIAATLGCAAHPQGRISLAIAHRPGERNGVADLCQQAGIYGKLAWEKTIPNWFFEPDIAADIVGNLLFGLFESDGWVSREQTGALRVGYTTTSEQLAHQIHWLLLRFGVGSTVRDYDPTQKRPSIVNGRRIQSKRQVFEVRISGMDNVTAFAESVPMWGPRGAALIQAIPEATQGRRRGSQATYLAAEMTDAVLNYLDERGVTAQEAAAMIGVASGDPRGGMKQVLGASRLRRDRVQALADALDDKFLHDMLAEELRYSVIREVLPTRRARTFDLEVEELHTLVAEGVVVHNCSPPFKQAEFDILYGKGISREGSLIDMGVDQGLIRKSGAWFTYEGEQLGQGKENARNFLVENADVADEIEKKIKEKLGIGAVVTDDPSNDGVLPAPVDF
# [2] = molecular target: T3, Replicative DNA helicase DnaB (Mycobacterium tuberculosis, UniProt P9WMR3); assay: DnaB intein splicing inhibitors, dose response, biochemical, cell-free fluorescence (AID 449749); format: functional
# T3 sequence (P9WMR3 whole entry): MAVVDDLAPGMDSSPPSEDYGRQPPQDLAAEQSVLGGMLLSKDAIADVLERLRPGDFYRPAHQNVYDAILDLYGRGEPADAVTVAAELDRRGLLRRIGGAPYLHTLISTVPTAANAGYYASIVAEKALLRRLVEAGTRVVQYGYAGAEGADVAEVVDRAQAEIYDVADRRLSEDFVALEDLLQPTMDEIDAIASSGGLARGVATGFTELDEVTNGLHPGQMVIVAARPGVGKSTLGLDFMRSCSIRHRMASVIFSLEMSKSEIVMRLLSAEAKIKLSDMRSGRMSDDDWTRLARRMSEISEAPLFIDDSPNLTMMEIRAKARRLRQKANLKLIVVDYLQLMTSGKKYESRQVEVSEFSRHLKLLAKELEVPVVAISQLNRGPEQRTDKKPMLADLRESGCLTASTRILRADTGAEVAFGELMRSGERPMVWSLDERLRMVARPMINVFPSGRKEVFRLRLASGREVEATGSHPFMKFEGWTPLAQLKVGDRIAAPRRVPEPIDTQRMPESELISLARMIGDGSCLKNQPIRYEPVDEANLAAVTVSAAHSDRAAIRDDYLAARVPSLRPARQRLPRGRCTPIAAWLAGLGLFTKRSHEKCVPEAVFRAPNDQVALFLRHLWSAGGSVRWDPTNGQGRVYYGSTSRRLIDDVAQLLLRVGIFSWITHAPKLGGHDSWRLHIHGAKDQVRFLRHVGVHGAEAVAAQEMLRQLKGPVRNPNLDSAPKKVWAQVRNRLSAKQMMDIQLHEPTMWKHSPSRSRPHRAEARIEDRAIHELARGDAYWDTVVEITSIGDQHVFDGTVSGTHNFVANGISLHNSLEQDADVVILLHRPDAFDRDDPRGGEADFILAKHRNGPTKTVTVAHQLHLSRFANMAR
# [3] = molecular target: T1, Polyadenylate-binding protein 1; assay: MLLE binding blockers, Cy5 peptide tracer – biochemical, fluorescence polarization, Cy5-PAM2 peptide, secondary, miRNA deadenylation inhibitor project, dose response (AID 602260); format: functional; details: read-out: IC50_Mean
# Genome polyprotein = Genome polyprotein (dengue virus type 2, UniProt P29990); assay: flavivirus cap methylation enzyme inhibition – biochemical, confirmation dose response, primary screen (AID 588689); format: functional
# [4] = molecular target: T4, Hepatocyte nuclear factor 4-alpha (Homo sapiens, UniProt P41235); format: functional, cell-based;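 also: biochemical luminescence-based dose-response counterscreen measuring inhibition of HNF4 dimerization, run alongside a screen for blockers of ABHD5–perilipin-5 interaction; split luciferase complementation of HNF4 fusion proteins in cell lysate measuring dimerization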
# T4 sequence (P41235 whole entry): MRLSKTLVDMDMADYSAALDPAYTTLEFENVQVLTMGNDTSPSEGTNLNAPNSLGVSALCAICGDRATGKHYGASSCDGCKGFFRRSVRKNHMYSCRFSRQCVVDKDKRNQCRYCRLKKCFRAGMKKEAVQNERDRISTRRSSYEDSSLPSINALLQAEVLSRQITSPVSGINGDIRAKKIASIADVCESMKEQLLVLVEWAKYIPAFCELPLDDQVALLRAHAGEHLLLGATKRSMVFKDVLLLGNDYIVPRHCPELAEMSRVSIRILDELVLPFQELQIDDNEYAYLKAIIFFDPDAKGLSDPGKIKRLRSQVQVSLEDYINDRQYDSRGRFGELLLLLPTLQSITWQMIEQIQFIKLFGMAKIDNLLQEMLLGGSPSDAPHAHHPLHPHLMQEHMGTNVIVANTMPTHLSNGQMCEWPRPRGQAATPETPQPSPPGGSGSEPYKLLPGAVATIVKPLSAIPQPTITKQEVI
# [5] = molecular target: T5, Heat shock factor protein 1 (Mus musculus, UniProt P38532); assay: decrease of HSF1-responsive luciferase luminescence – cell-based, NIH3T3, dose retest, confirmation (AID 2382); format: functional;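 also: NIH3T3 fibroblasts with HSF1-driven luciferase reporter stressed by proteasome inhibitor MG132; luminescence from HSF1-driven luciferase expression after 8 hours of MG132 stress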
# T5 sequence (P38532 whole entry): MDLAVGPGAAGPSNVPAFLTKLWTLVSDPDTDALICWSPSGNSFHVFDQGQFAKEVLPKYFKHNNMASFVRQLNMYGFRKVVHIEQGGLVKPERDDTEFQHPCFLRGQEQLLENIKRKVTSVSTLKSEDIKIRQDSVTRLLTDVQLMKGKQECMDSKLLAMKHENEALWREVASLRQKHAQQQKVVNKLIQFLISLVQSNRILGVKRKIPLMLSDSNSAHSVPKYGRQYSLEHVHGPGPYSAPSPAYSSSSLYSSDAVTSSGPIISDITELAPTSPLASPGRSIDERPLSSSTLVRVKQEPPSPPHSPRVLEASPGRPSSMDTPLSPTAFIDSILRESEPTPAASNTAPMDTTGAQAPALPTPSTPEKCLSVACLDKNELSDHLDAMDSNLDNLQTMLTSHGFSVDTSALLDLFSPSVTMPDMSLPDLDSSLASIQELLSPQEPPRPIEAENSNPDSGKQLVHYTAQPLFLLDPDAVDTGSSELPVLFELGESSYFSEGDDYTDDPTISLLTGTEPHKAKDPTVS
# [6] = general cell-killing toxicity readout – plate reader, dry powder samples, cytotoxicity control for PAX8 inhibitor project, dose response (AID 743021); format: functional, cell-based
# [7] = Trypanosoma cruzi growth suppression in host cells – NIH3T3 host cells, beta-gal luminescence, confirmation (AID 2044); format: functional, cell-based;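 also: intracellular parasites grown in NIH/3T3 mouse fibroblasts as host cells; luminescent beta-galactosidase reporter signal from transgenic T. cruzi replicating inside host cells; inhibitors lower the luminescence signal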
# [8] = loss of viability in HepG2 cells – cell-based, CellTiter-Glo, cherry-picked, cytotoxicity control for Shn3 inhibitor project, dose response (AID 624134); format: functional
# [9] = fluconazole-exposed Candida albicans growth modulators – fluorescence, retest, confirmation (AID 2467); format: functional, cell-based
# [10] = reduction of Shn3 3'UTR-driven luciferase in osteoblasts – cell-based, Clone20 osteoblasts, firefly luciferase, cherry-picked, dose response (AID 624132); format: functional;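 also: firefly luciferase luminescence from reporter carrying the Shn3 3'UTR in osteoblasts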
# [11] = NIH-3T3 fibroblast cytotoxicity, dose response, cytotoxicity control, cell-based, fluorescence, Alamar Blue, secondary assay (AID 2327); format: functional;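 also: NIH-3T3 mouse fibroblasts cultured with fluconazole at 8 µg/mL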
# Paired box protein Pax-8 = Paired box protein Pax-8 (Homo sapiens, UniProt Q06710); assay: PAX8 transcriptional activity inhibition in RMG-I – RMG-I cells, luciferase, cherry-pick, dose response (AID 687027); format: functional, cell-based;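 also: luciferase reporter driven by Pax8 target thyroperoxidase promoter measured by SteadyGlo luminescence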
# [12] = non-specific 3'UTR reporter inhibition in Clone20-Shn3RL – cell-based, Renilla luciferase, cherry-picked, counter-screen for Shn3 inhibitor project, dose response (AID 624133); format: functional
# [13] = NIH3T3 cell viability loss – ATP luminescence, mouse fibroblasts, counter-screen, dose response (AID 2010); format: functional, cell-based;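 also: cells exposed to compound for about 90 hours before reading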
# [14] = viability of uninfected HEp-2 cells – cell-based, HTS, cytotoxicity control for RSV inhibitor project, dose response (AID 2410); format: functional; details: human respiratory syncytial virus
# [15] = viability of PTEN-deleted HCT116 cells – cell-based, HCT116 PTEN knockout, dose response (AID 1047); format: functional;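 also: HCT116 colon tumor cells with PTEN knocked out; cells exposed to compound for 60 hours before readout; potency for loss of cell viability measured by luminescence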
# [16] = molecular target: T6, Carboxy-terminal domain RNA polymerase II polypeptide A small phosphatase 1 (Homo sapiens, UniProt Q9GZU7); assay: CTDSP1 inhibitors, concentration-response, biochemical, absorbance readout, ultra-high-throughput screen actives (AID 540297); format: functional
# T6 sequence (Q9GZU7 whole entry): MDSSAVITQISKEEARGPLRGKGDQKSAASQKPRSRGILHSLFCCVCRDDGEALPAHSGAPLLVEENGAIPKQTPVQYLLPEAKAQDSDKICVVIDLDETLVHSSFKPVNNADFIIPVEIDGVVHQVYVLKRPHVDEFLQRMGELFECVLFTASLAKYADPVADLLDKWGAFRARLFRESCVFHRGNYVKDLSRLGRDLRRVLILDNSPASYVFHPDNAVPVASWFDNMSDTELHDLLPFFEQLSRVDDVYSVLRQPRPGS
# [17] = molecular target: T7, Low molecular weight phosphotyrosine protein phosphatase (Homo sapiens, UniProt P24666); format: functional; details: read-out: IC50_Mean;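 also: Dose-response confirmation assay measuring inhibition of LMPTP enzyme activity by fluorescence intensity read-out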
# T7 sequence (P24666 whole entry): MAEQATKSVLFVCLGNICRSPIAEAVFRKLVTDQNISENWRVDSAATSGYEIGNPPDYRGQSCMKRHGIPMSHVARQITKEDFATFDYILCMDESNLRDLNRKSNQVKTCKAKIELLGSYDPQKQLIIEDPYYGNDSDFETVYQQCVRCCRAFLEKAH
# [18] = viability of HCT116 lacking mutant beta-catenin – cell-based, human colon tumor, dose response (AID 1045); format: functional;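 also: HCT116 colon tumor cells with beta catenin knocked out; cells exposed to compound for 60 hours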
# P388/ADR = assay: cells; format: functional; details: Mus musculus
# P388 = assay: cells; format: functional; details: Mus musculus
# SN12K1 = assay: cells; format: functional; details: Homo sapiens
# Vero [19] = assay: cells; format: functional, cell-based; details: Chlorocebus sabaeus
# Vero [20] = assay: cells; format: functional; details: Chlorocebus sabaeus
# Paired box protein Pax-8, sequence (Q06710 whole entry): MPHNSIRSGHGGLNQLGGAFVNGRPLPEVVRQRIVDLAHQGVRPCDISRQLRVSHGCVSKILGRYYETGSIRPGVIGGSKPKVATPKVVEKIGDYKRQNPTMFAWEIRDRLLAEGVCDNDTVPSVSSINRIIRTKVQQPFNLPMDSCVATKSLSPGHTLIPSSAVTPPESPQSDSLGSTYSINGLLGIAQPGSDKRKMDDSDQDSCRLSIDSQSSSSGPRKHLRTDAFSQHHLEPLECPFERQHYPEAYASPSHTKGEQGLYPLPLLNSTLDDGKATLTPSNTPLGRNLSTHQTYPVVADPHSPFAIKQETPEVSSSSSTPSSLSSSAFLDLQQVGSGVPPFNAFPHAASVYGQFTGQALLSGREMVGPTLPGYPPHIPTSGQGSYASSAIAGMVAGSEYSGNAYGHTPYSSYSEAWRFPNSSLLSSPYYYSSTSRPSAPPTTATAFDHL
# T1 sequence (P11940 whole entry, the tested form may be a part): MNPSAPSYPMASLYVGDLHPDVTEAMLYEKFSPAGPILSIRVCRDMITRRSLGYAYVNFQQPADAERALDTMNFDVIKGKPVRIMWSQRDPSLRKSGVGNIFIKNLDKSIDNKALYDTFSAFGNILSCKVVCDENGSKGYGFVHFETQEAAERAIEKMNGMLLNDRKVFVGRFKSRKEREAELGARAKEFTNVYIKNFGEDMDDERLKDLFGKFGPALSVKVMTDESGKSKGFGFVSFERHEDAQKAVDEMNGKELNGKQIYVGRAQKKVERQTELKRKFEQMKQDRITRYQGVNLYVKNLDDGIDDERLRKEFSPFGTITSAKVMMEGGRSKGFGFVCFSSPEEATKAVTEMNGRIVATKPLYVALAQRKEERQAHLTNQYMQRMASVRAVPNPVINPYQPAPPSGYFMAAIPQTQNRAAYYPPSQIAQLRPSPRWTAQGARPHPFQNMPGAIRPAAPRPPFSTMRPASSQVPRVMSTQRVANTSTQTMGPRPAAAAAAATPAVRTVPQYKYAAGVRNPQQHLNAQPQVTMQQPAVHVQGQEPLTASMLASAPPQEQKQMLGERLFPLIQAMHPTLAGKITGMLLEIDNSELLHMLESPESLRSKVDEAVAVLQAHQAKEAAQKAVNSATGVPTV
# Genome polyprotein, sequence (P29990 2492-3391 limits assumed): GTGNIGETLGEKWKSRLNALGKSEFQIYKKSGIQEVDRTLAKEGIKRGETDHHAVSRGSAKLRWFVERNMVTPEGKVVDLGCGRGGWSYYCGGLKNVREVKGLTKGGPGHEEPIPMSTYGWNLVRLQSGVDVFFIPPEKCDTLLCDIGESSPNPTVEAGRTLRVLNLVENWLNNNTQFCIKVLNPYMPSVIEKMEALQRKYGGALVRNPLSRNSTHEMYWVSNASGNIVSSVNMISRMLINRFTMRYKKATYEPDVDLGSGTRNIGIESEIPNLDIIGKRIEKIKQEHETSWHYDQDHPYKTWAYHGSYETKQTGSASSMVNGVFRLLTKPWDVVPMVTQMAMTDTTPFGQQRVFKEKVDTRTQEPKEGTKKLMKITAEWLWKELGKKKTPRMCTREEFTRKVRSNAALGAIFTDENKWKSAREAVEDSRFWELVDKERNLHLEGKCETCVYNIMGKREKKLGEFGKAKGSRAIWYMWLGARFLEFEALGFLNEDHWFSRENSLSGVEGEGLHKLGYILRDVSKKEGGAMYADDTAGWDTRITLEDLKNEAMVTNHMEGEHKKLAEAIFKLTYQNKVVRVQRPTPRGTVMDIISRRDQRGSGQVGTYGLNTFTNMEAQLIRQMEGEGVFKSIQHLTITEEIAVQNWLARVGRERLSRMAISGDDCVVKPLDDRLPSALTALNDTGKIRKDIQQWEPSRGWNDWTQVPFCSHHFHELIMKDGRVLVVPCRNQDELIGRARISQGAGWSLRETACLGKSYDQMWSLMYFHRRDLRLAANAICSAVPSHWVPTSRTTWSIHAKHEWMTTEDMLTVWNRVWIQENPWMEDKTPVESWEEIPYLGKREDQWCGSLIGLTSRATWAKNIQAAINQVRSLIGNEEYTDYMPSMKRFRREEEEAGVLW
smiles,measurement,setting,value
O=C(O)c1ccccc1Nc1cc(Cl)c2nonc2c1[N+](=O)[O-],IC50,[1],> 66 µM (inactive)
same,EC50,Protein RecA,1.94 µM (active)
same,AC50,[2],0.0492 µM (active)
same,IC50,[3],> 66 µM (inactive)
Cc1ccc(C(=O)C2=C(O)C(=O)OC2c2ccc(Cl)cc2)cc1 (configuration not stated),IC50,Genome polyprotein,60.8 µM (active)
same,IC50,[4],8.81 µM (active)
Cc1ccc(S(=O)(=O)c2ncccc2[N+](=O)[O-])cc1,EC50,[5],3.92 µM (active)
same,AC50,[6],23.6 µM (active)
same,EC50,[7],2.96 µM (active)
same,AC50,[8],30.2 µM (active)
same,EC50,[9],2.73 µM (active)
same,AC50,[10],1.91 µM (active)
same,EC50,[11],4.37 µM (inconclusive)
same,AC50,Paired box protein Pax-8,8.34 µM (active)
same,AC50,[12],6.47 µM (active)
same,EC50,[13],2.85 µM (active)
Cc1cccc(C)c1NC(=O)C(c1ccccc1F)n1c(=O)c(-c2ccco2)nc2ccccc21 (configuration not stated),IC50,[4],2.48 µM (active)
CC1CN(C(=S)c2cccc([N+](=O)[O-])c2)CC(C)O1 (configuration not stated),IC50,[1],> 66 µM (inactive)
same,IC50,[3],> 66 µM (inactive)
O=C(CC1S/C(=N\c2cccc3ccccc23)N(Cc2ccccn2)C1=O)Nc1ccccc1Br (configuration not stated),AC50,[6],67.5 µM (active)
same,AC50,Paired box protein Pax-8,15.4 µM (active)
CC1=C(C(=O)O)N2C(=O)C(NC(=O)c3ccn(C)n3)C2SC1 (configuration not stated),IC50,[1],> 66 µM (inactive)
same,IC50,[3],> 66 µM (inactive)
O=C1/C(=C/c2cccnc2)CC/C1=C\c1cccnc1,CC50,[14],27.2 µM (active)
same,IC50,[4],7.46 µM (active)
O=C(N/N=C/c1cccc([N+](=O)[O-])c1)c1cc2c(ccc3ccccc32)o1,EC50,[15],52.6 µM (active)
same,IC50,[16],3.91 µM (active)
same,IC50,[17],4.06 µM (active)
same,EC50,[18],148 µM (active)
CCN(CC)CCC(C)OC(c1ccccc1)c1ccccc1 (configuration not stated),IC50,[4],20.7 µM (inactive)
COC1=CC(=O)N(C(=O)C(OC(=O)C2CCCN2C(=O)C2CCCN2C(=O)C(C(C)C)N(C)C(=O)C(NC(=O)C(C(C)C)N(C)C)C(C)C)C(C)C)C1Cc1ccccc1 (configuration not stated) (ξNMe2Val-V[NMeV]PP-X18; configuration not given here),GI50,P388/ADR,0.00748 µM (active)
same,GI50,P388,0.0004 µM (active)
same,GI50,SN12K1,0.0004 µM (active)
N=C(N)NC(=S)Nc1ccc(Cl)cc1,IC50,[1],> 66 µM (inactive)
same,IC50,[3],> 66 µM (inactive)
CC1C(=O)OC2CC[N+]3(CC(=O)c4ccc(Br)cc4)CC=C(COC(=O)C(C)(O)C1(C)O)C23 (configuration not stated),GI50,P388/ADR,> 375 µM (inactive)
same,GI50,P388,> 174 µM (inactive)
same,GI50,SN12K1,> 375 µM (inactive)
C#CCN(C[C@@H]1[C@@H](OC(=O)Nc2cccs2)[C@@H](OC(=O)Nc2cccs2)Cn2c(=O)ccc(=O)n21)S(=O)(=O)c1ccc(C)cc1,IC50,Vero [19],23.3 µM (active)
same,CC50,Vero [20],> 25 µM (active)
same,IC50,[4],5.6 µM (active)
same,AC50,Paired box protein Pax-8,4.22 µM (active)
